The values below come from patent US20230233439A1, “METHOD FOR COSMETIC TREATMENT BY COMBINED ILLUMINATION AND APPLICATION OF A COMPOSITION COMPRISING NIACINAMIDE, AND ASSOCIATED DEVICE” (LIGHTINDERM, priority 2020, published 2023).

Common to all, as to type: cell-based
Assay [1] has as its system interleukin-8. Briefly: Protection of UVA/UVB-irradiated keratinocytes measured by interleukin-8 production. The method, then:
(§1) The inflammation of the cells and the measurement of the antiaging effect are based on the irradiation of a cell culture with a combination of UVA and UVB. […] Pure niacinamide at a concentration of 0.4 mg/mL or 1.2 mg/mL is used. For the treatments inducing illumination at 660 nm, 10 different programs are evaluated. These programs are defined in Table 1 below. [table] […] Free radicals are reactive and induce an inflammatory cascade characterized by the production of proinflammatory proteins (p53, pro-opiomelanocortin (POMC), interleukins, etc.) which can be measured in the cell supernatant. […] According to the protocol, at T+48 h, the cell supernatant is collected and the concentrations of interleukins 6 and 8 are measured and compared to the concentrations of interleukins 6 and 8 produced by cells exposed to UV and not subjected to any of the three abovementioned treatments (UV control) and to untreated and non-irradiated cells (non-irradiated control). A degree of protection of the treated cells relative to the UV control is evaluated according to the following formula: Non-irradiated cells show 100% protection and irradiated cells show 0% protection. […]

Assay [2] relates to interleukin-6. The assay can be described thus: Protection of UVA/UVB-irradiated keratinocytes measured by interleukin-6 production. The method, then: as §1
The subject of assay [3] is procollagen-1. The assay can be described thus: Procollagen-1 production by fibroblasts exposed to UVA and UVB. The conditions noted are these: niacinamide 0.4 mg/ml combined with illumination at 660 nm, programs 3 and 8; compared with niacinamide alone and with illumination alone; FIG. 3. The method, then:
The inflammation of the cells and the measurement of the antiaging effect are based on the irradiation of a cell culture with a combination of UVA and UVB. […] Pure niacinamide at a concentration of 0.4 mg/mL or 1.2 mg/mL is used. Attention is now focused on skin aging, known as “photoaging”, induced by UV exposure. One of the parameters of cutaneous aging observed clinically is the appearance of wrinkles associated in part with a decrease in collagen production by the cells of the dermis, the fibroblasts. […] The production of procollagen-1 produced by fibroblasts is measured in the supernatants obtained from the previously defined protocol in which the cells were illuminated either without any other treatment or in combination with niacinamide at a concentration of 0.4 mg/ml, and compared with treatment with niacinamide alone at a concentration of 0.4 mg/ml. The results are shown in FIG. 3 for illumination programs 3 and 8.

Where [4] appears, read: niacinamide 1.2 mg/ml combined with illumination at 660 nm, all illumination programs.

On to `NC(=O)c1cccnc1` [niacinamide], for which the “protection of the skin cells (interleukin-8) compared with illumination alone at 660 nm” value in assay [1] (setting [4]) is on record as “much greater protection”. Also, in assay [1] (niacinamide 1.2 mg/ml combined with pulsed illumination at 660 nm, all 10 programs, relative to UV-exposed cells and/or niacinamide alone, effects particularly visible, FIG. 2), the “protection of cells exposed to UV (interleukin-8 concentration)” value is given as “beneficial effect”. Moreover, the “protection of the skin cells (interleukin-6) compared with illumination alone at 660 nm” value in assay [2] (setting [4]) was “much greater protection”. Besides, the “protection of cells exposed to UV (interleukin-6 concentration)” value in assay [2] (niacinamide 1.2 mg/ml combined with pulsed illumination at 660 nm, all 10 programs, relative to UV-exposed cells and/or niacinamide alone, FIG. 1) is given as “beneficial effect”. Also, the “production of procollagen-1” value in assay [3] is reported as “Increased production”.
